Data from ChEMBL document CHEMBL1133396, “Construction of HIV Rev peptides containing peptide nucleic acid that bind HIV RRE IIB RNA” (Bioorg Med Chem Lett, 2000).
Peptide text beside a SMILES is read from it.

These compounds were tested against Nucleic Acid (assay: Dissociation constant against stem loop IIB region of RRE-response element RNA was reported).
Format: nucleic-acid assay, Human immunodeficiency virus 1

**Q.** Which Kd does the source give for C[C@H](NC(=O)[C@H](CCC(N)=O)NC(=O)[C@H](CCCNC(=N)N)NC(=O)[C@@H](NC(=O)CCC(=O)O)[C@@H](C)O)C(=O)N[C@@H](CCCNC(=N)N)C(=O)N[C@@H](CCCNC(=N)N)C(=O)N[C@@H](CC(N)=O)C(=O)N[C@@H](CCCNC(=N)N)C(=O)N[C@@H](CCCNC(=N)N)C(=O)N[C@@H](CCCNC(=N)N)C(=O)N[C@@H](CCCNC(=N)N)C(=O)N[C@@H](Cc1c[nH]c2ccccc12)C(=O)N[C@@H](CCCNC(=N)N)C(=O)N[C@@H](CCC(=O)O)C(=O)N[C@@H](CCCNC(=N)N)C(=O)N[C@@H](CCC(N)=O)C(=O)NCCN(CC(N)=O)C(=O)Cn1ccc(N)nc1=O (HELM PEPTIDE1{[O=C(O)CCC(=O)[*:2]].T.R.Q.A.R.R.N.R.R.R.R.W.R.E.R.Q.[NC(=O)CN(CCN[*:1])C(=O)Cn1ccc(N)nc1=O]}$$$$V2.0) here?
**A.** The Kd was 21 nM.

**Q.** How did the Kd turn out when C[C@H](NC(=O)[C@H](CCC(N)=O)NC(=O)[C@H](CCCNC(=N)N)NC(=O)[C@@H](NC(=O)CCC(=O)O)[C@@H](C)O)C(=O)N[C@@H](CCCNC(=N)N)C(=O)N[C@@H](CCCNC(=N)N)C(=O)N[C@@H](CC(N)=O)C(=O)N[C@@H](CCCNC(=N)N)C(=O)N[C@@H](CCCNC(=N)N)C(=O)N[C@@H](CCCNC(=N)N)C(=O)NCCN(CC(=O)N[C@@H](Cc1c[nH]c2ccccc12)C(=O)N[C@@H](CCCNC(=N)N)C(=O)N[C@@H](CCC(=O)O)C(=O)N[C@@H](CCCNC(=N)N)C(=O)N[C@@H](CCC(N)=O)C(=O)N[C@@H](CCCNC(=N)N)C(N)=O)C(=O)Cn1ccc(N)nc1=O was run?
**A.** The Kd was 240 nM.

**Q.** For C[C@H](NC(=O)[C@H](CCC(N)=O)NC(=O)[C@H](CCCNC(=N)N)NC(=O)[C@@H](NC(=O)CCC(=O)O)[C@@H](C)O)C(=O)N[C@@H](CCCNC(=N)N)C(=O)N[C@@H](CCCNC(=N)N)C(=O)N[C@@H](CC(N)=O)C(=O)N[C@@H](CCCNC(=N)N)C(=O)N[C@@H](CCCNC(=N)N)C(=O)N[C@@H](CCCNC(=N)N)C(=O)N[C@@H](CCCNC(=N)N)C(=O)N[C@@H](Cc1c[nH]c2ccccc12)C(=O)N[C@@H](CCCNC(=N)N)C(=O)N[C@@H](CCC(=O)O)C(=O)N[C@@H](CCCNC(=N)N)C(=O)N[C@@H](CCC(N)=O)C(=O)N[C@@H](CCCNC(=N)N)C(=O)NCC(N)=O (HELM PEPTIDE1{[O=C(O)CCC(=O)[*:2]].T.R.Q.A.R.R.N.R.R.R.R.W.R.E.R.Q.R.G.[am]}$$$$V2.0), which Kd is on record?
**A.** Its Kd is 8 nM.

**Q.** How did the Kd turn out when C[C@H](NC(=O)[C@H](CCC(N)=O)NC(=O)[C@H](CCCNC(=N)N)NC(=O)[C@@H](NC(=O)CCC(=O)O)[C@@H](C)O)C(=O)N[C@@H](CCCNC(=N)N)C(=O)NCCN(CC(=O)N[C@@H](CC(N)=O)C(=O)N[C@@H](CCCNC(=N)N)C(=O)N[C@@H](CCCNC(=N)N)C(=O)N[C@@H](CCCNC(=N)N)C(=O)N[C@@H](CCCNC(=N)N)C(=O)N[C@@H](Cc1c[nH]c2ccccc12)C(=O)N[C@@H](CCCNC(=N)N)C(=O)N[C@@H](CCC(=O)O)C(=O)N[C@@H](CCCNC(=N)N)C(=O)N[C@@H](CCC(N)=O)C(=O)N[C@@H](CCCNC(=N)N)C(N)=O)C(=O)Cn1ccc(N)nc1=O was run?
**A.** Its Kd is 420 nM.

**Q.** C[C@H](NC(=O)[C@H](CCC(N)=O)NC(=O)[C@H](CCCNC(=N)N)NC(=O)[C@@H](NC(=O)CCC(=O)O)[C@@H](C)O)C(=O)N[C@@H](CCCNC(=N)N)C(=O)N[C@@H](CCCNC(=N)N)C(=O)N[C@@H](CC(N)=O)C(=O)N[C@@H](CCCNC(=N)N)C(=O)N[C@@H](CCCNC(=N)N)C(=O)N[C@@H](CCCNC(=N)N)C(=O)N[C@@H](CCCNC(=N)N)C(=O)N[C@@H](Cc1c[nH]c2ccccc12)C(=O)N[C@@H](CCCNC(=N)N)C(=O)N[C@@H](CCC(=O)O)C(=O)N[C@@H](CCCNC(=N)N)C(=O)N[C@@H](CCC(N)=O)C(=O)NCCN(CC(N)=O)C(=O)Cn1cnc2c(N)ncnc21 (HELM PEPTIDE1{[O=C(O)CCC(=O)[*:2]].T.R.Q.A.R.R.N.R.R.R.R.W.R.E.R.Q.[NC(=O)CN(CCN[*:1])C(=O)Cn1cnc2c(N)ncnc21]}$$$$V2.0) was tested. Which Kd did it give?
**A.** Its Kd is 10 nM.

**Q.** Which Kd does the source give for C[C@H](NC(=O)[C@H](CCC(N)=O)NC(=O)[C@H](CCCNC(=N)N)NC(=O)[C@@H](NC(=O)CCC(=O)O)[C@@H](C)O)C(=O)N[C@@H](CCCNC(=N)N)C(=O)N[C@@H](CCCNC(=N)N)C(=O)N[C@@H](CC(N)=O)C(=O)N[C@@H](CCCNC(=N)N)C(=O)N[C@@H](CCCNC(=N)N)C(=O)N[C@@H](CCCNC(=N)N)C(=O)N[C@@H](CCCNC(=N)N)C(=O)N[C@@H](Cc1c[nH]c2ccccc12)C(=O)N[C@@H](CCCNC(=N)N)C(=O)N[C@@H](CCC(=O)O)C(=O)N[C@@H](CCCNC(=N)N)C(=O)N[C@@H](CCC(N)=O)C(=O)NCC(=O)NCC(N)=O (HELM PEPTIDE1{[O=C(O)CCC(=O)[*:2]].T.R.Q.A.R.R.N.R.R.R.R.W.R.E.R.Q.G.G.[am]}$$$$V2.0) here?
**A.** Its Kd is 42 nM.
